Here are results for 13 compounds from ChEMBL document CHEMBL1201862, “PubChem BioAssay data set” (2004).

Test systems include NCI-H226; HCT-15; NCI-H460; 786-0; IGROV-1; KM12; U-251; HOP-92; RPMI-8226; HT-29; HCT-116; MOLT-4; UACC-62; A498; UO-31; SNB-75.
Holding throughout (assay): DTP human tumour cell line panel, 48 h

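Where inhibition never reached the appropriate level, the endpoint shown equals the highest concentration tested. Otherwise, values were interpolated linearly from a five-concentration, 48-hour dose response in 96-well plates. GI50 is the concentration that inhibits growth by half.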 Active and inactive are the calls of the source. Rule as the data show it: active = GI50 up to about 1.1 µM and inactive = higher.

One may read the GI50 as the concentration at which growth is held to half of that of the control.

`S=C(N/N=C/c1ccccc1)NC12CC3CC(CC(C3)C1)C2`: the GI50 in the experiment on NCI-H226 was 97.7 µM (inactive); in the experiment with HCT-15, 47.8 µM; with NCI-H460 it was 39.5 µM (inactive); in the experiment on 786-0, 56.1 µM (inactive); in the experiment on IGROV-1, > 100 µM (inactive); in the experiment on KM12, 36.2 µM (inactive). Further, the GI50 in the experiment on U-251 was 53.8 µM (inactive); in the experiment on HOP-92, 6.18 µM (inactive); with RPMI-8226 it was 22 µM (inactive); with HT-29, 5.31 µM (inactive); with HCT-116, 29.5 µM (inactive); with MOLT-4 it was 12.3 µM (inactive). Besides, the GI50 was 27.5 µM (inactive) in the experiment on UACC-62, 63.4 µM (inactive) with A498 and > 100 µM (inactive) with UO-31.

Consider `COc1ccc(C=O)c(NC(=O)C(C)C)c1`, for which the GI50 with NCI-H226 is > 10 µM (inactive); with HCT-15, 33.3 µM; in the experiment on SNB-75 it was 30.6 µM (inactive); with NCI-H460 it was > 100 µM (inactive); with 786-0 it was 74.6 µM (inactive); with IGROV-1, > 100 µM (inactive). In addition, the GI50 with KM12 is > 10 µM (inactive); in the experiment with U-251 it was 77.1 µM (inactive); with HOP-92, 18.2 µM (inactive); in the experiment with RPMI-8226 it was 20.5 µM (inactive); with HT-29, 66.7 µM (inactive); in the experiment with HCT-116, 15.8 µM (inactive). For the same compound, the GI50 with MOLT-4 is 21.3 µM (inactive); in the experiment on UACC-62, 30.3 µM (inactive); with A498, 49.7 µM (inactive); in the experiment with UO-31, 33.3 µM (inactive).

With `CC1S(=O)(=O)OCCOS1(=O)=O`, the GI50 in the experiment with NCI-H226 was > 100 µM (inactive); in the experiment with HCT-15 it was greater than 100 µM; in the experiment with SNB-75 it was 67.9 µM (inactive); with NCI-H460, 31.7 µM (inactive); with 786-0 it was 46.2 µM (inactive); with IGROV-1 it was > 100 µM (inactive). Further, the GI50 in the experiment with KM12 is > 100 µM (inactive); in the experiment on U-251, 28.8 µM (inactive); in the experiment with HOP-92, > 100 µM (inactive); in the experiment with RPMI-8226 it was > 100 µM (inactive); with HT-29 it was > 100 µM (inactive); in the experiment on HCT-116 it was > 95.7 µM (inactive). Besides, the GI50 is 18 µM (inactive) in the experiment on MOLT-4, 22.6 µM (inactive) with UACC-62, > 100 µM (inactive) in the experiment with A498 and > 100 µM (inactive) with UO-31.

Take `CCOC(=O)C1=C(NC)OCC1=O`: the GI50 in the experiment on NCI-H226 is > 100 µM (inactive); in the experiment on HCT-15 it was greater than 100 µM; with SNB-75, > 100 µM (inactive); in the experiment with NCI-H460, > 100 µM (inactive); in the experiment on 786-0, > 100 µM (inactive); with IGROV-1, > 100 µM (inactive). The GI50 with KM12, in the experiment with U-251, in the experiment with HOP-92, in the experiment with RPMI-8226, with HT-29 and with HCT-116 was > 100 µM (inactive) in each case. Moreover, the GI50 with UACC-62, in the experiment with A498 and with UO-31 was > 100 µM (inactive) in each case.

As to `CCOC(=O)/C=C/n1c2ccccc2c(=O)c2cc(OC)ccc21`, the GI50 in the experiment with NCI-H226 is > 100 µM (inactive); with HCT-15, 39.9 µM; in the experiment on SNB-75, 51.5 µM (inactive); with NCI-H460, > 100 µM (inactive); with 786-0, > 100 µM (inactive); with IGROV-1 it was > 100 µM (inactive). The GI50 was > 100 µM (inactive) with KM12; 71.8 µM (inactive) with U-251; 57.9 µM (inactive) in the experiment on HOP-92; 38.5 µM (inactive) with HT-29; 90.6 µM (inactive) in the experiment on HCT-116; > 100 µM (inactive) in the experiment with MOLT-4. Also, the GI50 with UACC-62, in the experiment on A498 and in the experiment with UO-31 was > 100 µM (inactive) each time.

On to `C[C@]12CCC(=O)CC1CCCC2=O` (stereo partly specified), for which the GI50 in the experiment with HCT-15 is greater than 100 µM; in the experiment on SNB-75, > 100 µM (inactive); in the experiment with NCI-H460, > 100 µM (inactive); with 786-0 it was > 100 µM (inactive); in the experiment on IGROV-1, > 100 µM (inactive); in the experiment with KM12, > 100 µM (inactive). For the same compound, the GI50 in the experiment with U-251, in the experiment with HOP-92, with RPMI-8226, in the experiment with HT-29, in the experiment on HCT-116 and in the experiment on MOLT-4 was > 100 µM (inactive) throughout. Also, the GI50 in the experiment with UACC-62, in the experiment with A498 and with UO-31 was > 100 µM (inactive) in each case.

Regarding `COC(=O)[C@H](Cc1ccccc1)NC(=O)/C(=C/C(C)C)NC(=O)[C@H](CCSC)NC=O`, the GI50 with NCI-H226 was > 100 µM (inactive); in the experiment on HCT-15 it was greater than 100 µM; in the experiment on SNB-75, > 100 µM (inactive); in the experiment on NCI-H460 it was > 100 µM (inactive); in the experiment with 786-0, > 100 µM (inactive); in the experiment with IGROV-1, > 100 µM (inactive). The GI50 in the experiment with KM12, in the experiment on U-251, with HOP-92, in the experiment on RPMI-8226, in the experiment on HT-29 and in the experiment on HCT-116 was > 100 µM (inactive) throughout. In addition, the GI50 with MOLT-4, with UACC-62, in the experiment with A498 and in the experiment on UO-31 was > 100 µM (inactive) throughout.

Take `COc1cc([C@@H]2c3cc4c(cc3[C@@H](NC(=O)c3ccc(C#N)cc3)C3COC(=O)[C@@H]32)OCO4)cc(OC)c1O` (stereo partly specified): the concentration for 50% growth inhibition (GI50) with NCI-H226 is 0.0176 µM (active); in the experiment on HCT-15 it was 2.28 µM; in the experiment with SNB-75 it was 0.673 µM (active); with NCI-H460, < 0.01 µM (active); with 786-0, 0.411 µM (active); in the experiment on IGROV-1, 0.191 µM (active). For the same compound, the GI50 with KM12 is 1.02 µM (active); in the experiment on U-251, 0.106 µM (active); in the experiment with HOP-92 it was 0.586 µM (active); in the experiment with RPMI-8226 it was 2.84 µM (inactive); in the experiment with HT-29 it was 1.25 µM (inactive); with HCT-116 it was 0.459 µM (active). Further, the GI50 in the experiment with MOLT-4 is 3.63 µM (inactive); in the experiment with UACC-62, 0.316 µM (active); with A498 it was 1.02 µM (active); in the experiment with UO-31, 4.03 µM (inactive).

Regarding `CN1C/C(=C\c2ccc(C(=O)O)cc2)C(=O)/C(=C/c2ccc(C(=O)O)cc2)C1`, the GI50 with NCI-H226 is > 100 µM (inactive); in the experiment on HCT-15 it was greater than 100 µM; in the experiment on SNB-75 it was > 100 µM (inactive); with NCI-H460, > 100 µM (inactive); in the experiment on 786-0 it was > 100 µM (inactive); with IGROV-1, > 100 µM (inactive). Besides, the GI50 in the experiment on KM12, in the experiment on U-251, with HOP-92, in the experiment on RPMI-8226, with HT-29 and in the experiment on HCT-116 was > 100 µM (inactive) throughout. Besides, the GI50 with MOLT-4, with UACC-62, in the experiment with A498 and with UO-31 was > 100 µM (inactive) each time.

As for `CN(C)CC1(Cc2ccccc2)CC/C(=C\c2ccccc2)C1=O` (stereo unspecified), the GI50 was 92.9 µM (inactive) in the experiment on NCI-H226; 19.8 µM with HCT-15; 57.3 µM (inactive) in the experiment with SNB-75; 28.2 µM (inactive) with NCI-H460; 35.1 µM (inactive) in the experiment with 786-0; 47.8 µM (inactive) in the experiment with IGROV-1. The GI50 was 40.3 µM (inactive) with KM12; 32.8 µM (inactive) in the experiment with U-251; 51.4 µM (inactive) with HOP-92; 23.9 µM (inactive) in the experiment with RPMI-8226; 20.7 µM (inactive) in the experiment with HT-29; 29.1 µM (inactive) with HCT-116. For the same compound, the GI50 in the experiment with MOLT-4 is 24 µM (inactive); with UACC-62, 15.1 µM (inactive); in the experiment with A498 it was 33.1 µM (inactive); in the experiment with UO-31, 47.8 µM (inactive).

For the compound `CP(=O)(CCSc1ccccc1)c1ccccc1` (stereo unspecified), the GI50 in the experiment on NCI-H226 is > 100 µM (inactive); in the experiment with HCT-15, greater than 100 µM; with SNB-75 it was > 100 µM (inactive); in the experiment on NCI-H460 it was > 100 µM (inactive); in the experiment with 786-0, > 100 µM (inactive); with IGROV-1, > 100 µM (inactive). Moreover, the GI50 with U-251, in the experiment on HOP-92, with RPMI-8226, with HT-29, in the experiment on HCT-116 and in the experiment on MOLT-4 was > 100 µM (inactive) each time. The GI50 in the experiment on UACC-62, in the experiment on A498 and in the experiment on UO-31 was > 100 µM (inactive) each time.

`O=c1cc2ccccc2nn1Cc1ccccc1Cl`: the GI50 in the experiment on NCI-H226 is > 100 µM (inactive); in the experiment with HCT-15, greater than 100 µM; in the experiment with SNB-75, 25.3 µM (inactive); in the experiment on NCI-H460, > 100 µM (inactive); in the experiment on 786-0, > 100 µM (inactive); with IGROV-1, > 100 µM (inactive). The GI50 in the experiment with KM12 was > 100 µM (inactive); in the experiment with U-251 it was > 100 µM (inactive); in the experiment on HOP-92 it was 71.9 µM (inactive); in the experiment on RPMI-8226 it was 92.5 µM (inactive); in the experiment on HT-29, > 100 µM (inactive); with HCT-116, > 100 µM (inactive). Also, the values for the GI50 with UACC-62, in the experiment on A498 and in the experiment on UO-31 were 89.7 µM (inactive), > 100 µM (inactive) and 29.5 µM (inactive), respectively.

As to `c1ccc(N2CCN(CCN3CCc4c([nH]c5ccccc45)C3c3cccnc3)CC2)cc1` (stereo unspecified), the GI50 in the experiment on HCT-15 is greater than 100 µM; in the experiment on SNB-75, 3.07 µM (inactive); in the experiment on NCI-H460, > 100 µM (inactive); with 786-0 it was 33.1 µM (inactive); in the experiment with IGROV-1 it was > 100 µM (inactive); in the experiment with KM12, > 100 µM (inactive). Further, the GI50 in the experiment on U-251 was > 100 µM (inactive); in the experiment on HOP-92, 14.4 µM (inactive); in the experiment on RPMI-8226 it was > 100 µM (inactive); in the experiment with HT-29, > 100 µM (inactive); in the experiment on HCT-116, 46.8 µM (inactive); in the experiment with MOLT-4, > 100 µM (inactive). Besides, the GI50 with UACC-62 was > 100 µM (inactive); in the experiment on A498 it was > 100 µM (inactive); in the experiment on UO-31, 23.8 µM (inactive).
